# Measurements reported in US4468511A, “C-20- And C-23-Modified macrolide derivatives” (Eli Lilly and Company, priority 1983, dated 1984).
# Where two headings read alike, the source gives them in different places.
# Tests used:
# [1] = test system: Staphylococcus aureus S13E; assay: microbe, parasite or virus in culture; type: cell-based
# Description: (§1) The MIC's in Table II were determined by standard agar-dilution assays. The MIC's in Table III were obtained using a conventional broth-dilution microtiter test.
# [2] = test system: Staphylococcus epidermidis EPI1; assay: microbe, parasite or virus in culture; type: cell-based; conditions: Staphylococcus epidermidis, EPI1
# Description: as §1
# [3] = test system: Staphylococcus epidermidis EPI2; assay: MIC, standard agar-dilution assay; type: cell-based; conditions: Staphylococcus epidermidis, EPI2
# Description: as §1
# [4] = test system: Staphylococcus aureus X400; assay: MIC, standard agar-dilution assay; type: cell-based; conditions: Staphylococcus aureus, X400
# Description: as §1
# [5] = test system: Haemophilus influenzae C.L.; assay: MIC, standard agar-dilution assay; type: cell-based; conditions: Haemophilus influenzae
# Description: as §1
# [6] = test system: Haemophilus influenzae 76; assay: MIC, standard agar-dilution assay; type: cell-based
# Description: as §1
# [7] = test system: Streptococcus Group D X66; assay: MIC, standard agar-dilution assay; type: cell-based
# Description: (§2) Certain of the derivatives are active against some gram-negative bacteria, such as Pasteurella species. The MIC's in Table II were determined by standard agar-dilution assays. The MIC's in Table III were obtained using a conventional broth-dilution microtiter test.
# [8] = test system: Streptococcus pyogenes 9960; assay: MIC, standard agar-dilution assay; type: cell-based
# Description: as §2
# [9] = test system: Staphylococcus aureus V41; assay: MIC, standard agar-dilution assay; type: cell-based
# Description: as §2
# Escherichia coli TEM = assay: MIC, standard agar-dilution assay; type: cell-based; conditions: Escherichia coli
# Outline: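 Minimum inhibitory concentrations against Escherichia coli were measured with a standard agar-dilution method. The result for each derivative is the lowest concentration that inhibits bacterial growth, given in ug/mL.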
# [10] = test system: Klebsiella pneumoniae KAE; assay: MIC, standard agar-dilution assay; type: cell-based
# Outline: (§3)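 Agar plates containing graded compound levels gave the Klebsiella value. Graded broth dilutions in microtiter plates gave the Pasteurella and Mycoplasma values.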
# [11] = test system: Streptococcus pyogenes C203; assay: MIC, standard agar-dilution assay; type: cell-based
# Description: as §2
# Escherichia coli EC14 = assay: MIC, standard agar-dilution assay; type: cell-based; conditions: Escherichia coli, EC14
# Description: as §2
# [12] = test system: Streptococcus pneumoniae Park I; assay: MIC, standard agar-dilution assay; type: cell-based; conditions: Streptococcus pneumoniae
# Description: as §2
# [13] = test system: Klebsiella pneumoniae X26; assay: MIC, standard agar-dilution assay; type: cell-based; conditions: Klebsiella pneumoniae, X26
# Outline: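 MICs for the two Pasteurella strains and the Mycoplasma strain were read from a broth-dilution microtiter test. The Klebsiella strain was tested on agar instead.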
# [14] = test system: Staphylococcus aureus X1.1; assay: MIC, standard agar-dilution assay; type: cell-based; conditions: Staphylococcus aureus, X1.1
# Outline: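 Minimum inhibitory concentration against Staphylococcus aureus strain X1.1 was measured with a standard agar-dilution method. The result is reported as the MIC in ug/mL, i.e. the lowest compound concentration in agar that prevents visible growth of this organism.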
# [15] = test system: Pasteurella multocida 17E; assay: MIC, conventional broth-dilution microtiter test; type: cell-based
# Outline: as §3
# Mycoplasma synoviae = assay: MIC, conventional broth-dilution microtiter test; type: cell-based; conditions: Mycoplasmopsis synoviae
# Outline: (§4)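 Minimum inhibitory concentrations are determined by conventional broth dilution in microtiter wells for Pasteurella and Mycoplasma isolates. For Klebsiella pneumoniae KAE, the standard agar-dilution assay is used.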
# [16] = test system: Pasteurella hemolytica 41D; assay: MIC, conventional broth-dilution microtiter test; type: cell-based
# Outline: as §3
# [17] = test system: Pasteurella multocida 68C; assay: MIC, conventional broth-dilution microtiter test; type: cell-based
# Outline: as §3
# Streptococcus sp. 80 = assay: MIC, conventional broth-dilution microtiter test; type: cell-based
# Description: as §2
# Mycoplasma gallisepticum = assay: MIC, conventional broth-dilution microtiter test; type: cell-based; conditions: Mycoplasmoides gallisepticum
# Outline: as §3
# [18] = test system: Mycoplasma gallisepticum 34159; assay: MIC, conventional broth-dilution microtiter test; type: cell-based; conditions: Mycoplasmoides gallisepticum
# Outline: as §3
# [19] = test system: Pasteurella hemolytica 23C; assay: MIC, conventional broth-dilution microtiter test; type: cell-based
# Outline: as §3
# [20] = test system: Pasteurella hemolytica 22C; assay: MIC, conventional broth-dilution microtiter test; type: cell-based
# Outline: as §3
# [21] = test system: Pasteurella multocida 60A; assay: MIC, conventional broth-dilution microtiter test; type: cell-based
# Outline: as §3
# [22] = test system: Pasteurella multocida 22A; assay: MIC, conventional broth-dilution microtiter test; type: cell-based
# Outline: as §3
# [23] = test system: Pasteurella multocida 40G; assay: MIC, conventional broth-dilution microtiter test; type: cell-based
# Outline: as §3
# Staphylococcus aureus = assay: MIC, conventional broth-dilution microtiter test; type: cell-based
# Description: as §2
# Mycoplasma hyorhinis = assay: MIC, conventional broth-dilution microtiter test; type: cell-based
# Outline: as §4
# [24] = test system: Mycoplasma gallisepticum 41313; assay: MIC, conventional broth-dilution microtiter test; type: cell-based; conditions: Mycoplasmoides gallisepticum
# Outline: as §3
# [25] = test system: Streptococcus pyogenes C203; assay: Protection of mice experimentally infected with S. pyogenes C203; type: in vivo
# Description: Some of the derivatives of this invention have shown in vivo antimicrobial activity against experimentally-induced infections in laboratory animals. When two doses of test compound were administered to mice experimentally infected with S. pyogenes C203, the activity observed was measured as an ED50 value [effective dose in mg/kg to protect 50% of the test animals: see Warren Wick, et al., J. Bacteriol. 81, 233-235 (1961)].
# Pasteurella multocida = assay: Pasteurella infection in one-day old chicks; type: in vivo; conditions: subcutaneous, 30 mg/kg × 2, 1 and 4 hours post-challenge
# Description: Certain of the formula 1 compounds of this invention have also shown in vivo activity against infections induced by gram-negative bacteria. Table V summarizes the results of tests in which illustrative compounds were evaluated against a Pasteurella infection in one-day old chicks. The compounds were administered parenterally after challenge of the chicks with Pasteurella multocida (0.1 ml of a 10^-4 dilution of a twenty-hour tryptose broth culture of an avian P. multocida given subcutaneously). In these tests, unless indicated otherwise, all non-medicated infected chicks died within 24 hours of Pasteurella challenge. In the tests summarized in Table V, the compounds were administered by subcutaneous injection at a dosage of 30 mg/kg, 1 and 4 hours post-challenge of the chicks with P. multocida.
structure (smiles),measurement,setting,value
"CCC1OC(=O)CC(O)C(C)C(OC2OC(C)C(O)C(N(C)C)C2O)C(CCOC(=O)Cc2ccccc2)CC(C)C(=O)C=CC(C)=CC1CO (centres unmarked) [Compound 1, 20-O-Phenylacetyl-20-dihydro-OMT]",MIC,[1],1 µg/mL
same,MIC,[2],0.5 µg/mL
same,MIC,[3],1 µg/mL
same,MIC,[4],2 µg/mL
same,MIC,[5],16 µg/mL
same,MIC,"[6]; Haemophilus influenzae, 76",16 µg/mL
same,MIC,[7],2 µg/mL
same,MIC,[8]; 9960,2 µg/mL
same,MIC,"[9]; Staphylococcus aureus, V41",1 µg/mL
same,MIC,Escherichia coli TEM,16 µg/mL
same,MIC,[10]; Klebsiella pneumoniae,> 128 µg/mL
same,MIC,"[11]; Streptococcus pyogenes, C203",1 µg/mL
same,MIC,Escherichia coli EC14,64 µg/mL
same,MIC,[12],0.5 µg/mL
same,MIC,[13],4 µg/mL
same,MIC,[14],1 µg/mL
same,MIC,"[15]; Pasteurella multocida, 17E",12.5 µg/mL
same,MIC,Mycoplasma synoviae,50 µg/mL
same,MIC,"[16]; Pasteurella, 41D",12.5 µg/mL
same,MIC,"[17]; Pasteurella multocida, 68C",6.25 µg/mL
same,MIC,"Streptococcus sp. 80; Streptococcus, SP.80",3.12 µg/mL
same,MIC,Mycoplasma gallisepticum,3.12 µg/mL
same,MIC,[18]; 34159,6.25 µg/mL
same,MIC,"[19]; Pasteurella, 23C",12.5 µg/mL
same,MIC,"[20]; Pasteurella, 22C",25 µg/mL
same,MIC,"[21]; Pasteurella multocida, 60A",25 µg/mL
same,MIC,"[22]; Pasteurella multocida, 22A",25 µg/mL
same,MIC,"[23]; Pasteurella multocida, 40G",25 µg/mL
same,MIC,Staphylococcus aureus,3.12 µg/mL
same,MIC,Mycoplasma hyorhinis; Mycoplasma,> 50 µg/mL
same,MIC,[24]; 41313,50 µg/mL
same,ED50,"[25]; C203, po, read-out: ED50 Oral",> 100 mg/kg
same,ED50,"[25]; C203, sc, read-out: ED50 Subcutaneous",> 30 mg/kg
same,Number of Deaths/Number Treated,Pasteurella multocida,9/10
"CCC1OC(=O)CC(O)C(C)C(OC2OC(C)C(O)C(N(C)C)C2O)C(CCNCc2ccccc2)CC(C)C(=O)C=CC(C)=CC1CO (centres unmarked) [Compound 4, 20-N-Benzylamino-20-deoxy-20-dihydro-OMT]",MIC,[1],8 µg/mL
same,MIC,[2],4 µg/mL
same,MIC,[3],32 µg/mL
same,MIC,[4],32 µg/mL
same,MIC,[5],2 µg/mL
same,MIC,"[6]; agar-dilution, Haemophilus influenzae 76, Ampicillin-resistant strain, read-out: MIC",2 µg/mL
same,MIC,[7],16 µg/mL
same,MIC,"[8]; agar-dilution, Streptococcus 9960, read-out: MIC",32 µg/mL
same,MIC,"[9]; agar-dilution, Staphylococcus aureus V41, Penicillin-resistant strain, read-out: MIC",16 µg/mL
same,MIC,Escherichia coli TEM,8 µg/mL
same,MIC,"[10]; agar-dilution, Klebsiella pneumoniae KAE, read-out: MIC",> 128 µg/mL
same,MIC,"[11]; agar-dilution, Streptococcus pyogenes C203, read-out: MIC",4 µg/mL
same,MIC,Escherichia coli EC14,128 µg/mL
same,MIC,[12],2 µg/mL
same,MIC,[13],8 µg/mL
same,MIC,[14],8 µg/mL
same,MIC,"[15]; broth-dilution microtiter, Pasteurella multocida 17E, Bovine isolate, read-out: MIC",3.12 µg/mL
same,MIC,"Mycoplasma synoviae; broth-dilution microtiter, Mycoplasma synoviae, read-out: MIC",12.5 µg/mL
same,MIC,"[16]; broth-dilution microtiter, Pasteurella hemolytica 41D, read-out: MIC",6.25 µg/mL
same,MIC,"[17]; broth-dilution microtiter, Pasteurella multocida 68C, read-out: MIC",3.12 µg/mL
same,MIC,"Streptococcus sp. 80; broth-dilution microtiter, Streptococcus sp. 80, read-out: MIC",6.25 µg/mL
same,MIC,"Mycoplasma gallisepticum; broth-dilution microtiter, Mycoplasma gallisepticum, read-out: MIC",3.12 µg/mL
same,MIC,"[18]; broth-dilution microtiter, Mycoplasma gallisepticum 34159, Resistant strain, read-out: MIC",50 µg/mL
same,MIC,"[19]; broth-dilution microtiter, Pasteurella hemolytica 23C, read-out: MIC",6.25 µg/mL
same,MIC,"[20]; broth-dilution microtiter, Pasteurella hemolytica 22C, read-out: MIC",6.25 µg/mL
same,MIC,"[21]; broth-dilution microtiter, Pasteurella multocida 60A, Avian isolate, read-out: MIC",3.12 µg/mL
same,MIC,"[22]; broth-dilution microtiter, Pasteurella multocida 22A, read-out: MIC",12.5 µg/mL
same,MIC,"[23]; broth-dilution microtiter, Pasteurella multocida 40G, read-out: MIC",6.25 µg/mL
same,MIC,"Staphylococcus aureus; broth-dilution microtiter, read-out: MIC",12.5 µg/mL
same,MIC,"Mycoplasma hyorhinis; broth-dilution microtiter, Mycoplasma hyorhinis, read-out: MIC",50 µg/mL
same,MIC,"[24]; broth-dilution microtiter, Mycoplasma gallisepticum 41313, Resistant strain, read-out: MIC",50 µg/mL
same,ED50,"[25]; C203, mice, oral, mg/kg × 2, doses given 1 and 4 hours postinfection, read-out: ED50 Oral",> 100 mg/kg
same,ED50,"[25]; C203, sc, mice, subcutaneous, mg/kg × 2, doses given 1 and 4 hours postinfection, read-out: ED50 Subcutaneous",16.1 mg/kg
same,Number of Deaths/Number Treated,Pasteurella multocida,1/10
